Results published in patent US8722649B2, “Alpha-chloro and alpha-bromo phosphonate analogs of lysophosphatidic acid and methods of making and using thereof” (University of Utah Research Foundation, priority 2007, dated 2014).
“Also recorded” adds a separate entry of the source. Read-outs that look alike come from different tables or passages of the source.

Experiments:
Format in all cases: cell-based
PPARγ = biological target: T1, PPARγ (Homo sapiens, UniProt P37231); assay: PPARγ activation assay (PPRE-Acox-Rluc reporter in CV-1 cells); conditions: 10 μM test analogue, 20 h
T1 construct: expressed in transfected cells; host or cells: CV-1 cells, transient (LipofectAMINE 2000)
T1 sequence (P37231 1-505): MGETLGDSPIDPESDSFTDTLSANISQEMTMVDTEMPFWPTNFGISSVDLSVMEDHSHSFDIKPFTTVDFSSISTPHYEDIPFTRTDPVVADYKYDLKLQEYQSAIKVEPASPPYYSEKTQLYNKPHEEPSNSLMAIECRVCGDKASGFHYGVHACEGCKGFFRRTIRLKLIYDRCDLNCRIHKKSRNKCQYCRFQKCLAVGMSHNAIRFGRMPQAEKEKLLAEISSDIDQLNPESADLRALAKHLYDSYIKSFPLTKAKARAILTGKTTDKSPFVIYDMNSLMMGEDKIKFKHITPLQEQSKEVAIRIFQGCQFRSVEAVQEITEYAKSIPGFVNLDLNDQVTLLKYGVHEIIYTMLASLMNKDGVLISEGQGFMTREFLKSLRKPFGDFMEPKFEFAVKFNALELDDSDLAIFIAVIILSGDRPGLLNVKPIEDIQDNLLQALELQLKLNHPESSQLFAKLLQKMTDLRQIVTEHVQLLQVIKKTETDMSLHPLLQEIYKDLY
Method: PPARγ activation assay. PPARγ activation was performed using CV-1 cells transfected with an acyl-coenzyme A oxidase-luciferase (PPRE-Acox-Rluc) reporter gene construct as previously reported. Briefly, CV-1 cells were plated in 96-well plates at a density of 1×10^4 cells per well in Dulbecco's modified Eagle's medium supplemented with 10% fetal bovine serum. The next day, the cells were transiently transfected with 125 ng of pGL3-PPRE-Acox-Rluc, 62.5 ng of pcDNA3.1 PPARγ, and 12.5 ng of pSV-β-galactosidase (Promega) using LipofectAMINE 2000 (Invitrogen). Twenty-four hours after transfection, cells were treated with OptiMEM (Invitrogen) containing 10 μM Rosiglitazone or 10 μM of the test analogue dissolved in DMSO for 20 h. Luciferase and β-galactosidase activities were measured with Steady-Glo® Luciferase Assay System (Promega) and the Galacto-Light Plus™ system (Applied Biosystems), respectively. Samples were run in quadruplicate and the mean ±standard errors were calculated. Data are representative of at least two independent transfections.

human LPA1 = biological target: T2, human LPA1 (Homo sapiens, UniProt Q92633); assay: Ca2+ mobilization assay, LPA1; conditions: for EC50: RH7777 cells stably expressing LPA1, agonist mode; for LPA1 (Emax): Emax = (maximal efficacy of compound/maximal efficacy of LPA 18:1) × 100; for LPA1 ligand type: agonist/antagonist in words
T2 construct: expressed in transfected cells
Method: (§1) Receptor activation using Ca^2+ mobilization assay for diastereomers of 1 (also represented as 19b). The rat hepatoma (RH7777) cell lines individually expressing either LPA1, LPA2, LPA3 or LPA5 receptors and Chinese hamster ovary (CHO) cell line were analyzed to examine agonism and antagonism. […] CHO cells stably expressing either vector or LPA4 were kindly gifted from Dr. Shimizu (University of Tokyo, Tokyo, Japan).
Stable transformants of LPA1/2/3 receptors. RH7777 cells stably expressing each receptor were plated onto poly-L-lysine (PLL) (0.1 mg/mL)-coated black-wall clear-bottom 96-well plates (Corning Incorporated Life Sciences, Acton, Mass.) at a density of 5×10^4 cells/well and cultured overnight. The following day, the culture medium was replaced with modified Krebs buffer (120 mM NaCl, 5 mM KCl, 0.62 mM MgSO4, 1.8 mM CaCl2, 10 mM HEPES, 6 mM glucose, pH 7.4), and the cells were serum starved for 6 h. Subsequently, cells were loaded with Fura-2 AM (Invitrogen, Carlsbad, Calif.) for 35 min in modified Krebs buffer containing 2% (v/v) pluronic acid.
(§2) After incubating the cells with Fura-2 AM, the cells were rinsed with Krebs buffer and changes in the intracellular Ca^2+ concentration were monitored by determining the ratio of emitted light intensities at 520 nm in response to excitation at 340 and 380 nm using FLEXstation II (Molecular Devices, Sunnyvale, Calif.). Each well was monitored for 80-120 sec. For testing agonist activity of the compounds, the test compounds were added automatically after 15 sec of baseline measurement. To determine antagonist properties, varying concentrations of the compounds were mixed with a constant concentration of LPA and responses were monitored. Each test was performed in quadruplicate. EC50, IC50, and Ki values were calculated by fitting a sigmoid function to data points with the nonlinear curve-fitting feature of KaleidaGraph (Synergy Software, Essex Junction, Vt.).
Receptor activation using Ca^2+ mobilization assay. The assay for mobilization of intracellular Ca^2+ was performed as described. Briefly, rat hepatoma RH7777 cells stably expressing human LPA1, LPA2, or LPA3, and CHO cells stably expressing LPA4, were loaded with Fura-2 AM (Molecular Probes). Using a FLEXStation (Molecular Devices, Sunnyvale, Calif.), changes in intracellular Ca^2+ concentration were monitored. Ligand-induced changes in fluorescence were monitored for 80-120 seconds. Ca^2+ transients were quantified automatically by calculating the difference between maximum and baseline ratio values for each sample. To determine antagonist properties, different concentrations of each analogue were mixed with either palmitoyl (16:0) or oleoyl (18:1) LPA (200 nM for LPA1 and LPA3, 10 nM for LPA2, and 400 nM for LPA4) (Avanti Polar Lipids, Inc., […], Ala.) and responses were recorded. Each test was performed in quadruplicate. EC50, IC50, and Ki values were calculated as described. The ligand properties of the compounds were evaluated using Ca^2+ mobilization assay for assessing the activation/inhibition of LPA1, LPA2, and LPA3 expressed in RH7777 cells and LPA4 expressed in CHO cells. Table l illustrates calcium responses elicited through the activation of human LPA1, LPA2, LPA3 and LPA4 receptors. These cell lines have been used extensively for the characterization of LPA GPCR ligands because RH7777 cells are intrinsically unresponsive to LPA and CHO cells show minimal endogenous responses to LPA unless transfected with LPA4.

human LPA5 = biological target: T3, human LPA5 (Homo sapiens, UniProt Q9H1C0); assay: Ca2+ mobilization assay, LPA5 transiently transfected RH7777 cells; conditions: for Emax at 10 µM: RH7777; for LPA5 ligand type: agonist/antagonist in words
T3 construct: expressed in transfected cells; host or cells: rat hepatoma RH7777 cells, transient (Effectene)
Method: as §1
Transient transfection of LPA5. RH7777 cells in a 10-cm dish at a density of 2×10^6/dish were transfected with 2 μg of plasmid DNA with Effectene (Qiagen, Valencia, Calif.) according to the manufacturer's instructions for 24 h, then replated onto PLL-coated 96-well plates at a density of 5×10^4 cells/well and cultured overnight. The following day, the culture medium was then replaced with modified Krebs buffer, and the cells were serum starved for 4 h. Subsequently, cells were loaded with Fura-2 AM for 30 min in modified Krebs buffer containing 2% (v/v) pluronic acid.
as §2

[1] = antagonist mode vs 200 nM LPA, PA = partial antagonist, read-out: LPA1 IC50
[2] = diastereomer study, RH7777 cells, read-out: LPA1 IC50 (Table 2)
[3] = diastereomer study, RH7777 cells, read-out: LPA1 Ki (Table 2)
[4] = transiently transfected RH7777 cells

T3 sequence (Q9H1C0 whole entry): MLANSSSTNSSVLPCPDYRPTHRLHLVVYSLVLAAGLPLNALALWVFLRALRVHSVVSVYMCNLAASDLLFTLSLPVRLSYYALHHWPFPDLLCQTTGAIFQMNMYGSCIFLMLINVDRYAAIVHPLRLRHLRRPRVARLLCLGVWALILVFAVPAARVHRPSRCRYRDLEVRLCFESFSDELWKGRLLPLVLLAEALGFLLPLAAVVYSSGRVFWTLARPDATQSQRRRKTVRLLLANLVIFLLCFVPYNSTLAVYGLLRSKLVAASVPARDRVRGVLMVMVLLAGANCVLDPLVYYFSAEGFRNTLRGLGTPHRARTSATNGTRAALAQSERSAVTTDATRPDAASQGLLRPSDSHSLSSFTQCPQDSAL
T2 sequence (Q92633 whole entry): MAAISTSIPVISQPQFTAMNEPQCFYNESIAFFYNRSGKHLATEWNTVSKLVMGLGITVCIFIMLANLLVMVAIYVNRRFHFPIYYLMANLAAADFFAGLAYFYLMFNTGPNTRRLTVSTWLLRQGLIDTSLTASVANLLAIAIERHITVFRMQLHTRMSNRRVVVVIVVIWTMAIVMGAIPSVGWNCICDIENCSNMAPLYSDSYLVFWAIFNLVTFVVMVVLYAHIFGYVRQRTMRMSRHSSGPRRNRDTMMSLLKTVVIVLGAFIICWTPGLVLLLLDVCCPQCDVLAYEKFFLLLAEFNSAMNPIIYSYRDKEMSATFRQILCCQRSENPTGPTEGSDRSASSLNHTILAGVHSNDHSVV

EC50 (human LPA1) | IC50 (human LPA1; [1]) | LPA1 (Emax) (human LPA1) | IC50 (human LPA1; [2]) | Ki (human LPA1; [3]) | Structure (SMILES) | PPARγ (PPRE luciferase reporter gene assay) (PPARγ) | other results
> 30 µM | 1.5 ± 0.559 µM |  | 4.52 µM | 0.805 µM | CCCCCCCCCCCCCCCC(=O)OC[C@@H](O)CC(Br)P(=O)(O)O (mixture of isomers) [Compound 1, [1-Bromo-3(S)-hydroxyl-4-(palmitoyloxy)butyl]-phosphonate] |  | Ki (human LPA1; antagonist mode vs 200 nM LPA, read-out: LPA1 (Ki)): 0.751 µM; Emax at 10 µM (human LPA5): 54%; EC50 (human LPA5; transiently transfected RH7777 cells, NS = non-saturated): 1.28 µM
> 30 µM | > 30 µM |  |  |  | CCCCCCCCCCCCCCCC(=O)OCC(O)CC(O)P(=O)([O-])O.[Na+] (mixture of isomers) [Compound 22b, reference compound] | NE (NE = no effect was shown at the highest concentration (30 μM) tested.) | 
> 9.25 µM | > 30 µM | (39.1 ± 3.15) |  |  | CCCCCCCCC=CCCCCCCCC(=O)OCC(O)CC(O)P(=O)([O-])O.[Na+] (mixture of isomers) [Compound 22a, reference compound] | NE (NE = no effect was shown at the highest concentration (30 μM) tested.) | 
0.0908 ± 0.0209 µM | > 30 µM | (88.7 ± 3.6) |  |  | CCCCCCCCCCCCCCCC(=O)OCC(O)COP(=O)(O)O (stereo not drawn) [LPA (16:0), reference compound] | NE (NE = no effect was shown at the highest concentration (30 μM) tested.) | 
 |  |  | 0.648 µM | 0.273 µM | CCCCCCCCCCCCCCCC(=O)OC[C@@H](O)C[C@@H](Br)P(=O)(O)O [Compound 1a] |  | LPA1 ligand type (human LPA1): Antagonist; Emax at 10 µM (human LPA5): 64%; LPA5 ligand type (human LPA5): Partial Agonist
 |  |  | 2.08 µM | 0.752 µM | CCCCCCCCCCCCCCCC(=O)OC[C@@H](O)C[C@H](Br)P(=O)(O)O [Compound 1b] |  | LPA1 ligand type (human LPA1): Antagonist; LPA5 ligand type (human LPA5): showed inhibition of LPA5; also recorded: Antagonist; IC50 (human LPA5; [4]): 0.977 µM; Ki (human LPA5; [4]): 0.376 µM

Structure (SMILES) | EC50 (human LPA1) | IC50 (human LPA1; [1]) | LPA1 (Emax) (human LPA1) | IC50 (human LPA1; [2]) | Ki (human LPA1; [3]) | PPARγ (PPRE luciferase reporter gene assay) (PPARγ) | other results
CCCCCCCCCCCCCCCC(=O)OC[C@@H](O)CCP(=O)([O-])O.[Na+] [Compound 20b, reference compound] | > 30 µM | > 30 µM |  |  |  | NE (NE = no effect was shown at the highest concentration (30 μM) tested.) | 
CCCCCCCC/C=C\CCCCCCCC(=O)OCC(O)CCP(=O)(O)O (stereo not drawn) [Compound 20a, reference compound] | > 2.52 µM | > 30 µM | (52.9 ± 11.3) |  |  | NE (NE = no effect was shown at the highest concentration (30 μM) tested.) | 
